Laboratory results reported in BindingDB's records for doi:10.1021/acs.jnatprod.0c01182 (Chinese Academy of Sciences, 2021).

Tests used:
[1] = Reversal of P-gp-mediated multidrug resistance in human KB/VCR cells assessed as potentiation of vincristine-induced antiproliferative activity by measuring vincristine IC50 at 20 uM measured after 72 hrs by CCK8 assay (Rvb = 0.78 uM)
[2] = Reversal of P-gp-mediated multidrug resistance in human KB/VCR cells assessed as potentiation of vincristine-induced antiproliferative activity by measuring vincristine IC50 at 2 uM measured after 72 hrs by CCK8 assay (Rvb = 0.51 uM)

SMILES | IC50 [1] [nM] | IC50 [2] [nM]
CC(=O)O[C@@H]1[C@@H]2[C@@H](OC(C)=O)[C@]3(OC2(C)C)[C@H](C)CC[C@H](OC(C)=O)[C@@]3(C)[C@H]1OC(=O)c1ccccc1 | 34 | 240
CC(=O)O[C@H]1CC[C@@H](C)[C@]23OC(C)(C)[C@H](C[C@H](OC(=O)c4ccccc4)[C@]12C)[C@H]3OC(C)=O | 15 | 210
CCCCCC(=O)O[C@@H]1[C@@H]2[C@@H](OC(C)=O)[C@]3(OC2(C)C)[C@H](C)C[C@@H](OC(C)=O)[C@H](OC(C)=O)[C@@]3(C)[C@H]1OC(=O)c1ccccc1 | 21 | 350
CC(=O)OC[C@]12[C@H](OC(C)=O)C(=O)[C@@H]3[C@@H](OC(C)=O)[C@]1(OC3(C)C)[C@H](C)C[C@H](O)[C@@H]2OC(C)=O | 330 | 480
CC(=O)OC[C@]12[C@H](OC(C)=O)C(=O)[C@@H]3[C@@H](O)[C@]1(OC3(C)C)[C@H](C)[C@@H](OC(C)=O)[C@H](OC(C)=O)[C@@H]2OC(C)=O | 260 | 470
CC(=O)OC[C@]12[C@H](OC(C)=O)C(=O)[C@@H]3[C@@H](OC(C)=O)[C@]1(OC3(C)C)[C@H](C)[C@@H](O)[C@H](OC(C)=O)[C@@H]2OC(C)=O | 390 | 550
CC(=O)O[C@@H]1[C@H]2[C@H](O)[C@H](OC(=O)c3ccccc3)[C@]3(C)[C@@H](OC(C)=O)[C@H](O)C[C@@H](C)[C@@]13OC2(C)C | 310 | 430
CC(=O)O[C@@H]1C[C@@H](C)[C@]23OC(C)(C)[C@H](C[C@H](OC(=O)c4ccccc4)[C@]2(C)[C@H]1OC(C)=O)[C@H]3OC(=O)/C=C/c1ccccc1 | – | 58
CC(=O)O[C@H]1[C@@H]2[C@@H](OC(=O)c3cccnc3)[C@]3(OC2(C)C)[C@H](C)C[C@H](OC(C)=O)[C@@H](OC(C)=O)[C@@]3(C)[C@H]1OC(=O)c1ccccc1 | < 8 | 64
CC(=O)O[C@H]1[C@@H]2[C@@H](OC(=O)/C=C/c3ccccc3)[C@]3(OC2(C)C)[C@H](C)C[C@@H](OC(C)=O)[C@H](OC(C)=O)[C@@]3(C)[C@H]1OC(=O)c1ccccc1 | < 8 | 100
CC(=O)O[C@H]1[C@@H]2[C@@H](OC(C)=O)[C@]3(OC2(C)C)[C@H](C)C[C@@H](OC(C)=O)[C@H](OC(C)=O)[C@@]3(C)[C@H]1OC(=O)c1ccccc1 | 56 | 190
CC(=O)O[C@@H]1[C@@H]2[C@@H](OC(C)=O)[C@]3(OC2(C)C)[C@H](C)C[C@H](OC(=O)/C=C/c2ccccc2)[C@H](OC(C)=O)[C@@]3(C)[C@@H]1OC(=O)c1ccccc1 | 26 | 100
CC(=O)O[C@H]1CC[C@@H](C)[C@]23OC(C)(C)[C@H](C[C@H](OC(=O)c4ccccc4)[C@]12C)[C@H]3OC(=O)c1ccccc1 | – | 100
COc1cc2c(cc1OC)CN(CCc1ccc(-n3nnc(-c4cc(OC)c(OC)cc4NC(=O)c4cc(=O)c5ccccc5o4)n3)cc1)CC2 [Encequidar] | – | 16
CC(=O)O[C@@H]1[C@@H]2[C@@H](OC(C)=O)[C@]3(OC2(C)C)[C@H](C)CC[C@H](OC(C)=O)[C@@]3(C)[C@@H]1OC(=O)c1ccccc1 | < 8 | 200
CC(=O)OC[C@]12[C@H](OC(C)=O)C(=O)[C@@H]3[C@@H](O)[C@]1(OC3(C)C)[C@H](C)[C@@H](O)[C@H](OC(C)=O)[C@@H]2OC(C)=O | 530 | 500
CC(=O)O[C@H]1[C@@H]2[C@@H](OC(=O)/C=C/c3ccccc3)[C@]3(OC2(C)C)[C@H](C)C[C@H](O)[C@H](OC(C)=O)[C@@]3(C)[C@H]1OC(=O)c1ccccc1 | – | 37
CC(=O)O[C@@H]1[C@@H]2[C@@H](OC(C)=O)[C@]3(OC2(C)C)[C@H](C)C[C@@H](OC(C)=O)[C@H](OC(C)=O)[C@@]3(C)[C@@H]1OC(=O)c1ccccc1 | 22 | 150
CC(=O)O[C@@H]1C[C@@H](C)[C@]23OC(C)(C)[C@H]([C@@H](O)[C@H](OC(=O)c4ccccc4)[C@@]2(C)[C@H]1OC(C)=O)[C@H]3OC(=O)/C=C/c1ccccc1 | – | 48
